The values that follow come from US8710233B2 (Gruenenthal GmbH, priority 2005, dated 2014).

Usually inhibition stands for the share of the control response that was lost under treatment. As a reminder, the Ki is the dissociation constant of the complex between target and ligand, obtained from inhibition or displacement.

The structures appear in SMILES notation. “And” between values parts separate entries of the source, which are not always exact repeats. Equal values may be shown once.

Common to all, as to type: cell-based
Assay [1] addresses T1, vanilloid receptor (VR1) (Homo sapiens, UniProt Q8NER1).
T1 construct: expressed in transfected cells; host or cells: CHO K1 cells (ECACC), stably transfected
In words: FLIPR Ca2+ influx assay on CHO K1 cells transfected with the VR1 gene (pharmacological method II). To be noted: for inhibition at 1 µM / inhibition in percent, Ki (human) Cap.: ne = no effect, @ 1 μM.

Assay [2] addresses T2, vanilloid receptor 1 (VR1/TRPV1) of the rat species (Rattus norvegicus, UniProt O35433).
T2 construct: The spinal column is removed from decapitated rats; from tissue; host or cells: primary cells dissociated from rat dorsal root ganglia
Put plainly: FLIPR Ca2+ influx assay on rat dorsal root ganglia cells (pharmacological method I). As to conditions: for inhibition at 1 µM / inhibition in percent, Ki (rat) Cap.: ne = no effect, @ 1 μM; for inhibition at 1 µM: read-out: inhibition in percent, Ki (rat) Cap. Summed up: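 Primary rat dorsal root ganglion cells loaded with 2 μM Fluo-4, Ca2+ influx read on FLIPR as peak fluorescence. Triplicates, at least 3 independent experiments.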

The target in the next assay is VR1/TRPV1 receptor (Homo sapiens, UniProt Q8NER1). In words: IC50 (human) after pH stimulus.
Chain of VR1/TRPV1 receptor (Q8NER1 whole entry): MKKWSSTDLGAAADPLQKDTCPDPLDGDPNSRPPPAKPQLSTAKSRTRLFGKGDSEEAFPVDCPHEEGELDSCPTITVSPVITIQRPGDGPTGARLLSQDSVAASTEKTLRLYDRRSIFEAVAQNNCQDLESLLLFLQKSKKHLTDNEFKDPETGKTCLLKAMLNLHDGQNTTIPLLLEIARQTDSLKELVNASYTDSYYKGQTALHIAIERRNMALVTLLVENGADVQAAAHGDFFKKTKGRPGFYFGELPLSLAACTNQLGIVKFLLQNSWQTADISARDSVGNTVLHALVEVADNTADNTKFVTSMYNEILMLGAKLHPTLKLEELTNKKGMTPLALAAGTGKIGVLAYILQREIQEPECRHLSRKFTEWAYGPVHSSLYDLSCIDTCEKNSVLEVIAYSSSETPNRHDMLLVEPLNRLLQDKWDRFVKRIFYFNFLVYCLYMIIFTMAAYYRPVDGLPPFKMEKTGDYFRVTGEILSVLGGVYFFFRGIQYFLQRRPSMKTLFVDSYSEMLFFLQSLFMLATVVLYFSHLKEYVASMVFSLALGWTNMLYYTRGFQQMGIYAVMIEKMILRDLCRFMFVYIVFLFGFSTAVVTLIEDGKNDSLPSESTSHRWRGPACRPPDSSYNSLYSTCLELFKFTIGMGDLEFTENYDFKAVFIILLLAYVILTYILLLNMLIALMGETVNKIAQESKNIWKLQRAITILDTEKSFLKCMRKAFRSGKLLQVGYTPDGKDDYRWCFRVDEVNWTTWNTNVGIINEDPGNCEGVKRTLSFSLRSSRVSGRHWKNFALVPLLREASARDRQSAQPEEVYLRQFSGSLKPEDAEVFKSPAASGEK
The target of assay [3] is T1, vanilloid receptor (VR1). In words: FLIPR Ca2+ influx assay on CHO K1 cells transfected with the VR1 gene (pharmacological method II). To be noted: table 4; capsaicin; read-out: Ki (human) Cap.
Setting [4] is: CHO-K1, read-out: inhibition in percent, Ki (human) Cap.

T2 sequence (O35433 whole entry): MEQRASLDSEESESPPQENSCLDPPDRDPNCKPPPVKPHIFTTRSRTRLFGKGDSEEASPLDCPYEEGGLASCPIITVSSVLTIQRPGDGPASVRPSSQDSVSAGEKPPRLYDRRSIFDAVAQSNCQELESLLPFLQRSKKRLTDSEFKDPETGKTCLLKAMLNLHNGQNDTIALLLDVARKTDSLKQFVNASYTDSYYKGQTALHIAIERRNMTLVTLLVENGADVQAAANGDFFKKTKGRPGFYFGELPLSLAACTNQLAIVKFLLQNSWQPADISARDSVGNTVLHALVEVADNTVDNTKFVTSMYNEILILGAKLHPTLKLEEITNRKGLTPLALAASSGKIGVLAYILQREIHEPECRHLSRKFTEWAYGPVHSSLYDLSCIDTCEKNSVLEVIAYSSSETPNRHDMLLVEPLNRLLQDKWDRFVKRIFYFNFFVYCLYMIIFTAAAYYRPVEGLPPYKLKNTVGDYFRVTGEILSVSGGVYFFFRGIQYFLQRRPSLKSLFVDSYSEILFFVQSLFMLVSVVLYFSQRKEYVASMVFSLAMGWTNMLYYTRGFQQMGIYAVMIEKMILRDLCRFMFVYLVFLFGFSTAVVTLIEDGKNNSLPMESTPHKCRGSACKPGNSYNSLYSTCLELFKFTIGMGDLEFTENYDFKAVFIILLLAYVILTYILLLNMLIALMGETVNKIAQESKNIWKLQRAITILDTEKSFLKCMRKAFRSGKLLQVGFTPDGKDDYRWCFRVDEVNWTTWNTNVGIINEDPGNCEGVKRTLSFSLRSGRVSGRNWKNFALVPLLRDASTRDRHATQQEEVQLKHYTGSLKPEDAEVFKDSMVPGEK
T1 sequence (Q8NER1 whole entry): as the sequence (Q8NER1 whole entry) above

Take `CC(C(=O)NCc1ccc(C(F)(F)F)nc1N1CCC(N2CCCCC2)CC1)c1ccc(NS(C)(=O)=O)c(F)c1` (centres unmarked) [Compound 164]: the inhibition at 1 µM was determined as 20% on vanilloid receptor (VR1) [1] (setting [4]) and 1.5% in assay [2].

On to `CC(C(=O)NCc1ccc(C(F)(F)F)nc1N1CCN(c2ccncc2)CC1)c1ccc(NS(C)(=O)=O)c(F)c1` (centres unmarked) [Compound 176], for which the inhibition at 1 µM was 7.2% at vanilloid receptor (VR1) [1] (setting [4]) and 8% in assay [2].

Turning to `CC(C(=O)NCc1ccc(C(F)(F)F)cc1N)c1ccc(NS(C)(=O)=O)c(F)c1` (centres unmarked) [Example 61, N-(2-amino-4-(trifluoromethyl)benzyl)-2-(3-fluoro-4-(methylsulfonamido)-phenyl)propanamide], on VR1/TRPV1 receptor (@ 10 μM, read-out: inhibition in percent, IC50 (human) after pH stimulus), the inhibition at 10 µM was 47%. The “inhibition in percent, Ki (human) Cap.” value against vanilloid receptor (VR1) [1] is listed as “ne @ 1 μM”. Further, in assay [2], the “inhibition in percent, Ki (rat) Cap.” value was “ne @ 1 μM”.

Take `CC(C(=O)NCc1ccc(C(F)(F)F)cc1[N+](=O)[O-])c1ccc(NS(C)(=O)=O)c(F)c1` (centres unmarked) [Example 62, 2-(3-fluoro-4-(methylsulfonamido)phenyl)-N-(2-nitro-4-(trifluoromethyl)-benzyl)propanamide]: at VR1/TRPV1 receptor (@ 1 μM, ne = no effect), the “inhibition in percent, IC50 (human) after pH stimulus” value (from here on “inhibition in percent, IC50 (human)”) is “ne @ 1 μM”. Also, on vanilloid receptor (VR1) [1], the “inhibition in percent, Ki (human) Cap.” value is “ne @ 1 μM”. Further, in assay [2], the “inhibition in percent, Ki (rat) Cap.” value is “ne @ 1 μM”.

Take `CC(C(=O)NCc1ncc(C(F)(F)F)cc1N1CCCC1)c1ccc(NS(C)(=O)=O)c(F)c1` (centres unmarked) [Example 78, 2-(3-Fluor-4-(methylsulfonamido)phenyl)-N-((3-(pyrrolidin-1-yl)-5-(trifluoromethyl)pyridin-2-yl)methyl)propanamide]: at VR1/TRPV1 receptor (@ 10 μM), the “inhibition in percent, IC50 (human)” value is 36% @ 10 μM. For the same molecule, the “inhibition in percent, Ki (human) Cap.” value on vanilloid receptor (VR1) [1] came out at 15% @ 1 μM. Moreover, in assay [2], the “inhibition in percent, Ki (rat) Cap.” value is 19% @ 1 μM.

Regarding `CC(C(=O)NCc1ccc(C(F)(F)F)nc1Nc1ccc(F)cc1)c1ccc(NS(C)(=O)=O)c(F)c1` (centres unmarked) [Example 112, 2-(3-fluoro-4-methylsulfonamido-phenyl)-N-[2-(4-fluoro-phenylamino)-6-trifluoromethyl-pyridin-3-ylmethyl]-propionamide], the “inhibition in percent, IC50 (human)” value on VR1/TRPV1 receptor (@ 10 μM) was 64% @ 10 μM. On VR1/TRPV1 receptor (@ 25 μM, read-out: inhibition in percent, IC50 (human) after pH stimulus), the inhibition at 25 µM came to 67%. Also, the Ki on vanilloid receptor (VR1) [3] is 39.2 nM; in assay [2] (table 4, capsaicin, read-out: Ki (rat) Cap.), 31.8 nM and 236 nM. For the same molecule, the inhibition at 1 µM at vanilloid receptor (VR1) [1] (setting [4]) worked out at 15%.

With `CC(C(=O)NCc1c(CO)cc(C(C)(C)C)nc1OCc1ccccc1)c1ccc(NS(C)(=O)=O)c(F)c1` (centres unmarked) [Example 223, N-(2-benzyloxy-6-tert-butyl-4-hydroxymethyl-pyridin-3-ylmethyl)-2-(3-fluoro-4-methylsulfonamido-phenyl)-propionamide], on VR1/TRPV1 receptor (@ 1 μM, ne = no effect), the “inhibition in percent, IC50 (human)” value was “ne @ 1 μM”. Further, the inhibition at 1 µM on vanilloid receptor (VR1) [1] (setting [4]) turned out to be 38%; in assay [2] it was 53%.

In the case of `CC(C(=O)NCc1ccc(C(F)(F)F)nc1N1CCC(O)CC1)c1ccc(NS(C)(=O)=O)c(F)c1` (centres unmarked) [Example 269, 2-(3-fluoro-4-methylsulfonamido-phenyl)-N-(4-hydroxy-6′-trifluoromethyl-3,4,5,6-tetrahydro-2H-[1,2′]bipyridinyl-3′-ylmethyl)-propionamide], on VR1/TRPV1 receptor (@ 1 μM, ne = no effect), the “inhibition in percent, IC50 (human)” value is recorded as “ne @ 1 μM”. Besides, the “inhibition in percent, Ki (human) Cap.” value against vanilloid receptor (VR1) [1] is “ne @ 1 μM”. The “inhibition in percent, Ki (rat) Cap.” value in assay [2] was “ne @ 1 μM”.

`CC(C(=O)NCc1ccc(C(F)(F)F)nc1OC1CCNCC1)c1ccc(NS(C)(=O)=O)c(F)c1` (centres unmarked) [Example 344, 2-(3-fluoro-4-methylsulfonamido-phenyl)-N-[2-(piperidin-4-yloxy)-6-trifluoromethyl-pyridin-3-ylmethyl]-propionamide]: at VR1/TRPV1 receptor (@ 1 μM, ne = no effect), the “inhibition in percent, IC50 (human)” value is listed as “ne @ 1 μM”. In addition, the inhibition at 5 µM on vanilloid receptor (VR1) [1] (CHO-K1, @ 5 μM, read-out: inhibition in percent, Ki (human) Cap.) came to 34%.
